Assay results taken from PMC2962730 (Journal of neurochemistry, 2010).
Residue numbers refer to the chain shown, from its start.

How the values were obtained:
hVAChT M320A = molecular target: T1, hVAChT M320A (Homo sapiens, UniProt Q16572, M320A); assay: ACh equilibrium binding by competition against [3H]vesamicol
T1 sequence (Q16572 1-532 M320A): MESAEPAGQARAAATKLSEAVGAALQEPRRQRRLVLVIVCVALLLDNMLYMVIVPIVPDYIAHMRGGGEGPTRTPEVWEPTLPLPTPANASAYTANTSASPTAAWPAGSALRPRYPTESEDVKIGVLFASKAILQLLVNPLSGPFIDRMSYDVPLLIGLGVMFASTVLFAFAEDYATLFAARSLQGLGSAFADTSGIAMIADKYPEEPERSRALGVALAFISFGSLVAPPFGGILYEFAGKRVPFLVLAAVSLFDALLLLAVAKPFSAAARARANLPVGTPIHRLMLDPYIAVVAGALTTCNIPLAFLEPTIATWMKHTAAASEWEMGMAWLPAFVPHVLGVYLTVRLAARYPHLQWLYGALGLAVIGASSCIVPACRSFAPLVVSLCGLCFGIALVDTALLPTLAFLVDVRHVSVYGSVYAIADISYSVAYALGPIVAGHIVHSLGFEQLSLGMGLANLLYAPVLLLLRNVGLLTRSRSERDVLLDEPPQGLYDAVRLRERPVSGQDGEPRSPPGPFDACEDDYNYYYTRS

hVAChT A334F = molecular target: T2, hVAChT A334F (Homo sapiens, UniProt Q16572, A334F); assay: as above; details: pH 7.4, monophasic fit, FHA fixed to 1
T2 sequence (Q16572 1-532 A334F): T1 sequence (Q16572 1-532 M320A) with A320M, A334F

hVAChT A330V = molecular target: T3, hVAChT A330V (Homo sapiens, UniProt Q16572, A330V); assay: [3H]ACh transport; assay type: biochemical
T3 sequence (Q16572 1-532 A330V): T1 sequence (Q16572 1-532 M320A) with A320M, A330V

hVAChT M316A = molecular target: T4, hVAChT M316A (Homo sapiens, UniProt Q16572, M316A); assay: [3H]ACh transport; assay type: biochemical
T4 sequence (Q16572 1-532 M316A): T1 sequence (Q16572 1-532 M320A) with M316A, A320M

hVAChT Y60H = molecular target: T5, hVAChT Y60H (Homo sapiens, UniProt Q16572, Y60H); assay: ACh equilibrium binding by competition against [3H]vesamicol
T5 sequence (Q16572 1-532 Y60H): T1 sequence (Q16572 1-532 M320A) with Y60H, A320M

[1] = read-out: KM, Michaelis-Menten constant for ACh transport, pH 7.4

`CC(=O)OCC[N+](C)(C)C` [ACh, acetylcholine] was tested, and the Kd (hVAChT M320A) was 9.2 ± 0.8 mM, the “FHA, fraction of the ACh sites that have high affinity” value (from here on “FHA, fraction”) (hVAChT M320A; M320A hVAChT, pH 7.4) was 0.73 ± 0.11 and the “FHA, fraction” value (hVAChT A334F) was 1.0. The “Vmax/Bmax, ACh transport normalized to Bmax” value (hVAChT A330V; pH 7.4) was 6.3 ± 1.3 min⁻¹, the Km (hVAChT A330V; [1]) was 2200 ± 900 µM and the “Vmax/Bmax, ACh transport normalized to Bmax” value (hVAChT M316A; pH 7.4) was 8.2 ± 1.0 min⁻¹. For the same molecule, the Km (hVAChT M316A; [1]) was 1500 ± 300 µM, the Kd (hVAChT Y60H) was 11 mM and the “FHA, fraction” value (hVAChT Y60H; Y60H hVAChT, pH 7.4) was 0.82 ± 0.04.
